Like-named read-outs stand apart in the source and are kept apart here.
Molecular target: T1, ACE (Rattus norvegicus, UniProt P47820)
T1 construct: After the removal of the lungs from SHR, the lung tissue was homogenized; from tissue; host or cells: lung homogenate of spontaneously hypertensive rats (SHR)
T1 sequence (P47820 36-1313): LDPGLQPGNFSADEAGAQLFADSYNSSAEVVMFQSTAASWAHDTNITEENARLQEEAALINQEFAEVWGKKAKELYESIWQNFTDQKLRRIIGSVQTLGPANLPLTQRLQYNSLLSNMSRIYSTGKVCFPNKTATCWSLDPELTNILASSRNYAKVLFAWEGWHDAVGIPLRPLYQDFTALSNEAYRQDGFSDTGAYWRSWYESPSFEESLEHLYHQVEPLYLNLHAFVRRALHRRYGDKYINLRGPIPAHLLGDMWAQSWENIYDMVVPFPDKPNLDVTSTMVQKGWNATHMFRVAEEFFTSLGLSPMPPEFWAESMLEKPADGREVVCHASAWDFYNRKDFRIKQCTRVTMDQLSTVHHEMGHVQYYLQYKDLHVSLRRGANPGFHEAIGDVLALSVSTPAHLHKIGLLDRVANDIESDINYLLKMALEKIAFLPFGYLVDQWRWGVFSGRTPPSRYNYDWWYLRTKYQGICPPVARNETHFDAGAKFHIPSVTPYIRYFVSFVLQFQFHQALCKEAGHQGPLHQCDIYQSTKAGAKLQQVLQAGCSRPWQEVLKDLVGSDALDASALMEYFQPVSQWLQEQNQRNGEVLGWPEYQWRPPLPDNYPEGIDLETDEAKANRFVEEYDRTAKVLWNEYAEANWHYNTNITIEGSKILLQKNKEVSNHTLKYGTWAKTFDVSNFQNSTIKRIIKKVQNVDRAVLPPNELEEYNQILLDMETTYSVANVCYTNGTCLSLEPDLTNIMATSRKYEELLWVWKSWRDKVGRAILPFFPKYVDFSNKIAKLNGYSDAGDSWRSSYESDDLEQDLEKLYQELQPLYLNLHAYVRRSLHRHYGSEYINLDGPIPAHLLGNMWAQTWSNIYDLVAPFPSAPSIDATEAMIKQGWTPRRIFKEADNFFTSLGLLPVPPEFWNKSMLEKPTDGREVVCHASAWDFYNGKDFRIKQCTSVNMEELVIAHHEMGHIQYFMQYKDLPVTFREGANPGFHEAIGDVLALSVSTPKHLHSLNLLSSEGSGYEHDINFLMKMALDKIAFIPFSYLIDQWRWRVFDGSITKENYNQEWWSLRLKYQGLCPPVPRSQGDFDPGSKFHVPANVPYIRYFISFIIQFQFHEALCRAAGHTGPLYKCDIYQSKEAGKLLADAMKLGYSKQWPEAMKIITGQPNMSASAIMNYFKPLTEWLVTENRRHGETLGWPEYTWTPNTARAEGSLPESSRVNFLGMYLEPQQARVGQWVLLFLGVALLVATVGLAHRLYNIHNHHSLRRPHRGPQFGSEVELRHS
Assay: Ex vivo ACE-inhibitory activity in lung homogenates of treated SHR (radiometric, [3H]Hyp-Gly-Gly)
Parameters: species or system spontaneously hypertensive rats (SHR)
Details: SHR lungs; for inhibition at 30 µmol/kg: oral 30 µmoles/kg
Protocol: The ex-vivo ACE/NEP-inhibitory activity, in particular, was determined by evaluating the enzymatic activity in tissue homogenates (lung and kidney for ACE and NEP activity, respectively) from spontaneously hypertensive rats (SHR) treated with the tested compounds by intravenous or oral route.
The ex vivo ACE-inhibitory activity was evaluated by using a radiometric assay method, as reported in the literature by J. W. Ryan et al. in Biochem. J. (1977), 167, 501-504.
The inhibitory activity of the compounds of formula I was evaluated in lungs of spontaneously hypertensive rats (SHR), 5 minutes after i.v. injection (0.6 and 21 µmoles/kg) and 30 minutes, 60 minutes and 4 hours after oral administration (30 µmoles/kg) of the tested compounds.
After the removal of the lungs from SHR, the lung tissue was homogenized and incubated for 2 hours at 37°C in the presence of [^3H]Hyp-Gly-Gly, as a substrate.
The reaction was stopped by adding hydrochloric acid.
The released radiolabelled hyppuric acid was extracted with ethyl acetate and counted by liquid scintillation spectrometry, according to conventional methods.
The ACE-inhibitory activity of the tested compounds was expressed as percentage of ACE-inhibition in SHR lungs.

inhibition at 30 µmol/kg (30 minutes after administration, read-out: ACE-inhibition (lungs) 30 minutes): 60%
inhibition at 30 µmol/kg (60 minutes after administration, read-out: ACE-inhibition (lungs) 60 minutes): 36%
inhibition at 30 µmol/kg (4 hours after administration, read-out: ACE-inhibition (lungs) 4 hours): 45%
inhibition at 0.6 µmol/kg (iv, i.v. 0.6 µmoles/kg, 5 minutes after injection): 15%
inhibition at 21 µmol/kg (iv, i.v. 21 µmoles/kg, 5 minutes after injection): 72%
SMILES: O=C(N[C@@H](Cc1ccc(-c2nccs2)cc1)C(=O)O)[C@@H](CS)Cc1ccccc1 [Compound 16, N-[(2S)-3-mercapto-2-phenylmethylpropionyl]-4-(2-thiazolyl)-L-phenylalanine]

Source: EP0877740B1, “THIOL DERIVATIVES WITH METALLOPEPTIDASE INHIBITORY ACTIVITY” (ZAMBON GROUP S.p.A., priority 1995, dated 1997)
